Data from ChEMBL document CHEMBL3867482, “Design and synthesis of water soluble β-aminosulfone analogues of SCH 900229 as γ-secretase inhibitors” (Bioorg Med Chem Lett, 2016).
≈ marks a conversion by molar mass, not a printed value. Each block holds one compound with its values, some of them ahead of it.

Columns and labels:
[1] = Selectivity ratio of IC50 for human gamma secretase PS2 (1 to 467 residues) expressed in baculovirus infected sf9 cells co-expressing aph-1a to IC50 for gamma secretase PS1 (1 to 448 residues) expressed in baculovirus infected sf9 cells co-expressing aph-1a
[2] = Kinetic solubility of compound; format: physicochemical; conditions: read-out: Kinetic_solubility
[3] = Inhibition of gamma-secretase in HEK293 cell membranes expressing human APP Swedish/London double mutant assessed as reduction in amyloid beta 40 formation after 1 hr by electrochemiluminescence based immunoassay
Mus musculus [4] = experiment: Antialzheimer activity in B6C3F1 mouse assessed as amyloid beta 40 level in plasma at 10 mg/kg, po administered as single dose after 3 hrs relative to control; format: functional
Cytochrome P450 2C9 = Cytochrome P450 2C9 (Homo sapiens, UniProt P11712); experiment: Inhibition of CYP2C9 in human liver microsomes after 30 secs by LC/MS/MS analysis; format: ADME
[5] = Clearance in monkey hepatocytes assessed per million cells by HPLC/atmospheric pressure chemical ionization/MS analysis; format: ADME, cell-based, Macaca mulatta, Hepatocyte; conditions: rhesus monkey, read-out: CLH
[6] = AUC (0 to 6 hrs) in mouse at 10 mg/kg, po by LC/MS/MS analysis; format: ADME, organism-based; set-up: time < 6 hr, dose 10 mg/kg, route oral; conditions: in vivo
[7] = Clearance in human hepatocytes assessed per million cells by HPLC/atmospheric pressure chemical ionization/MS analysis; format: ADME, cell-based, Hepatocyte; conditions: read-out: CLH
Mus musculus [8] = experiment: Antialzheimer activity in B6C3F1 mouse assessed as amyloid beta 40 level in cortex at 10 mg/kg, po administered as single dose after 3 hrs relative to control; format: functional
[9] = Ratio of drug level in brain to plasma in mouse at 6 hrs; format: ADME, organism-based; conditions: brain and plasma, read-out: BPR
Cytochrome P450 3A4 [10] = biological target: T1, Cytochrome P450 3A4 (Homo sapiens, UniProt P08684); experiment: Inhibition of CYP3A4 in human liver microsomes preincubated for 30 mins after 30 secs by LC/MS/MS analysis; format: ADME
[11] = Clearance in dog hepatocytes assessed per million cells by HPLC/atmospheric pressure chemical ionization/MS analysis; format: ADME, cell-based, Canis lupus familiaris, Hepatocyte; conditions: read-out: CLH
[12] = Clearance in rat hepatocytes assessed per million cells by HPLC/atmospheric pressure chemical ionization/MS analysis; format: ADME, cell-based, Hepatocyte; conditions: read-out: CLH
Cytochrome P450 2D6 = Cytochrome P450 2D6 (Homo sapiens, UniProt P10635); experiment: Inhibition of CYP2D6 in human liver microsomes after 30 secs by LC/MS/MS analysis; format: ADME
Cytochrome P450 3A4 [13] = biological target: T1, Cytochrome P450 3A4; experiment: Inhibition of CYP3A4 in human liver microsomes after 30 secs by LC/MS/MS analysis; format: ADME

Sequence of Cytochrome P450 2C9 (P11712 whole entry): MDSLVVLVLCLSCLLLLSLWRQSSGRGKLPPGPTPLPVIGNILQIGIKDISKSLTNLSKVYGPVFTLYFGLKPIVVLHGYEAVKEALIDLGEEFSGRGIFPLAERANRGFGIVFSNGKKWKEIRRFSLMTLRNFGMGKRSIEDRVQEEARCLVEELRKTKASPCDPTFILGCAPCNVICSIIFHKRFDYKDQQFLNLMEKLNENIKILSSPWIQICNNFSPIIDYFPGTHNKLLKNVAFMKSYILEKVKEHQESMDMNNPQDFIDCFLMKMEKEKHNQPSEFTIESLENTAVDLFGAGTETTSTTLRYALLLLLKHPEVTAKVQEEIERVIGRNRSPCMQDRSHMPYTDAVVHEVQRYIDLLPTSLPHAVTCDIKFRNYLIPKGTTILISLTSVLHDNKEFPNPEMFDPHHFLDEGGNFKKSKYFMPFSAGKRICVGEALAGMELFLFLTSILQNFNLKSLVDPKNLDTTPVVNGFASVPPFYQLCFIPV
T1 sequence (P08684 whole entry): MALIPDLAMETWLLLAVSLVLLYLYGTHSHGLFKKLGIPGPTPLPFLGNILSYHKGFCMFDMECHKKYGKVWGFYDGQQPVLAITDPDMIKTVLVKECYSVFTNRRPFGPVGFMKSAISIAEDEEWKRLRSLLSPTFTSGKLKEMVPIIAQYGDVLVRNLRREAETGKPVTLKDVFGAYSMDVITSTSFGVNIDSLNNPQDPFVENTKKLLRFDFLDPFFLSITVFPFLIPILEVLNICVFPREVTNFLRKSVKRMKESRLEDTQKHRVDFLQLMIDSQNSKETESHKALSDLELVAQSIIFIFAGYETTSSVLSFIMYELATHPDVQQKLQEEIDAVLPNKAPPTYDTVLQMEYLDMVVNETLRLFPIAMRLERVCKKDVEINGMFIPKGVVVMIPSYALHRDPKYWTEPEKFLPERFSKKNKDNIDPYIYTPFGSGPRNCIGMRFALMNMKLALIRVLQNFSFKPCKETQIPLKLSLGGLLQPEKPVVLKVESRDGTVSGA
Sequence of Cytochrome P450 2D6 (P10635 whole entry): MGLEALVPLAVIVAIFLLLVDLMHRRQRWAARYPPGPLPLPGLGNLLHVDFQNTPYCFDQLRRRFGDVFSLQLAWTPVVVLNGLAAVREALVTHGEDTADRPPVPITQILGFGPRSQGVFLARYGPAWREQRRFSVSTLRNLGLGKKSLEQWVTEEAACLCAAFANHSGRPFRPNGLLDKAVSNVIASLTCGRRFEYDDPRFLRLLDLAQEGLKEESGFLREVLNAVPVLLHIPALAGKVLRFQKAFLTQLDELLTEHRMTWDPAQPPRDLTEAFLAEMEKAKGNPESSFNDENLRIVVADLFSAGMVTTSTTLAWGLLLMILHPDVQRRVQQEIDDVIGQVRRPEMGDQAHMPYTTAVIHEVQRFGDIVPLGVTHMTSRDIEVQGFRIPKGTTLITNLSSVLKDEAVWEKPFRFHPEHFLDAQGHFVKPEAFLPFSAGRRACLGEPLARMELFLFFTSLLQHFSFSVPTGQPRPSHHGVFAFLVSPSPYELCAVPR

SMILES: O=S(=O)(CC[C@@H]1OCC[C@@]2(S(=O)(=O)c3ccc(Cl)cc3)c3c(F)ccc(F)c3OC[C@@H]12)[C@@H]1CCNC1 [listing 1 of 2 here]
Ratio IC50 [1]: 21

SMILES: O=S(=O)(CC[C@@H]1OCC[C@@]2(S(=O)(=O)c3ccc(Cl)cc3)c3c(F)ccc(F)c3OC[C@@H]12)[C@H]1CCNC1 [listing 1 of 2 here]
Ratio IC50 [1]: 30

SMILES: Cl.O=S(=O)(CC[C@@H]1OCC[C@@]2(S(=O)(=O)c3ccc(Cl)cc3)c3c(F)ccc(F)c3OC[C@@H]12)C[C@H]1CCCN1
solubility kinetic [2]: ≥ 200 µM

SMILES: O=S(=O)(CC[C@@H]1OCC[C@@]2(S(=O)(=O)c3ccc(Cl)cc3)c3c(F)ccc(F)c3OC[C@@H]12)[C@H]1CCNC1 [listing 2 of 2 here]
Activity (Mus musculus [4]): -82%
IC50 (Cytochrome P450 2C9): > 20000 nM
hepatocyte CLint [5]: 60.5 µL/min/1e6 cells
AUC(0-t) at 6 h [6]: 1.02 µM·h
hepatocyte CLint [7]: 34.2 µL/min/1e6 cells
Activity (Mus musculus [8]): -56%
Kp at 6 h [9]: 0.3
IC50 [3]: 1.4 nM
IC50 (Cytochrome P450 3A4 [10]): 1000 nM
hepatocyte CLint [11]: 21.1 µL/min/1e6 cells
hepatocyte CLint [12]: 18.9 µL/min/1e6 cells
IC50 (Cytochrome P450 2D6): > 20000 nM
IC50 (Cytochrome P450 3A4 [13]): 2000 nM

SMILES: CNCCS(=O)(=O)CC[C@@H]1OCC[C@@]2(S(=O)(=O)c3ccc(Cl)cc3)c3c(F)ccc(F)c3OC[C@@H]12
Ratio IC50 [1]: 25

SMILES: NCCS(=O)(=O)CC[C@@H]1OCC[C@@]2(S(=O)(=O)c3ccc(Cl)cc3)c3c(F)ccc(F)c3OC[C@@H]12
Ratio IC50 [1]: 35

SMILES: CC(C)NCCS(=O)(=O)CC[C@@H]1OCC[C@@]2(S(=O)(=O)c3ccc(Cl)cc3)c3c(F)ccc(F)c3OC[C@@H]12
Ratio IC50 [1]: 30
IC50 [3]: 0.5 nM

SMILES: O=S(=O)(CC[C@@H]1OCC[C@@]2(S(=O)(=O)c3ccc(Cl)cc3)c3c(F)ccc(F)c3OC[C@@H]12)[C@@H]1CCNC1 [listing 2 of 2 here]
Activity (Mus musculus [4]): -90%
IC50 (Cytochrome P450 2C9): > 20000 nM
hepatocyte CLint [5]: 38.8 µL/min/1e6 cells
AUC(0-t) at 6 h [6]: 1.17 µM·h
hepatocyte CLint [7]: 14.5 µL/min/1e6 cells
Activity (Mus musculus [8]): -73%
Kp at 6 h [9]: 2
IC50 [3]: 5.1 nM
IC50 (Cytochrome P450 3A4 [10]): 3700 nM
hepatocyte CLint [11]: 17.9 µL/min/1e6 cells
hepatocyte CLint [12]: 13.9 µL/min/1e6 cells
IC50 (Cytochrome P450 2D6): > 20000 nM
IC50 (Cytochrome P450 3A4 [13]): 6100 nM

SMILES: Cl.O=S(=O)(CC[C@@H]1OCC[C@@]2(S(=O)(=O)c3ccc(Cl)cc3)c3c(F)ccc(F)c3OC[C@@H]12)C1CNC1
solubility kinetic [2]: > 200 µM

SMILES: O=C(O)CS(=O)(=O)CC[C@@H]1OCC[C@@]2(S(=O)(=O)c3ccc(Cl)cc3)c3c(F)ccc(F)c3OC[C@@H]12
Activity (Mus musculus [4]): 47%
Ratio IC50 [1]: 22
IC50 [3]: 2.7 nM
solubility kinetic [2]: > 200 µM

SMILES: O=S(=O)(CC[C@@H]1OCC[C@@]2(S(=O)(=O)c3ccc(Cl)cc3)c3c(F)ccc(F)c3OC[C@@H]12)C[C@H]1CCCN1
Ratio IC50 [1]: 23

More lines, main results first:

IC50 [3]: 2 nM
SMILES: O=S(=O)(CCNC1CCC1)CC[C@@H]1OCC[C@@]2(S(=O)(=O)c3ccc(Cl)cc3)c3c(F)ccc(F)c3OC[C@@H]12

IC50 [3]: 0.6 nM
SMILES: O=S(=O)(CC[C@@H]1OCC[C@@]2(S(=O)(=O)c3ccc(Cl)cc3)c3c(F)ccc(F)c3OC[C@@H]12)CCN1CC[C@@H](O)C1
Ratio IC50 [1]: 12

IC50 [3]: 1.6 nM
SMILES: O=S(=O)(CC[C@@H]1OCC[C@@]2(S(=O)(=O)c3ccc(Cl)cc3)c3c(F)ccc(F)c3OC[C@@H]12)CCN1CCC1
Ratio IC50 [1]: 17

IC50 [3]: 3.7 nM
SMILES: O=S(=O)(CC[C@@H]1OCC[C@@]2(S(=O)(=O)c3ccc(Cl)cc3)c3c(F)ccc(F)c3OC[C@@H]12)CCN1CCOCC1
Ratio IC50 [1]: 10

IC50 (Cytochrome P450 2C9): > 20000 nM
hepatocyte CLint [5]: 44.6 µL/min/1e6 cells
AUC(0-t) at 6 h [6]: 1.35 µM·h
hepatocyte CLint [7]: 15.1 µL/min/1e6 cells
Kp at 6 h [9]: 0.4
IC50 [3]: 0.9 nM
IC50 (Cytochrome P450 3A4 [10]): 1400 nM
hepatocyte CLint [11]: 10.8 µL/min/1e6 cells
hepatocyte CLint [12]: 29.1 µL/min/1e6 cells
IC50 (Cytochrome P450 2D6): > 20000 nM
IC50 (Cytochrome P450 3A4 [13]): > 20000 nM
SMILES: CCNCCS(=O)(=O)CC[C@@H]1OCC[C@@]2(S(=O)(=O)c3ccc(Cl)cc3)c3c(F)ccc(F)c3OC[C@@H]12

IC50 [3]: 0.8 nM
SMILES: O=S(=O)(CC[C@@H]1OCC[C@@]2(S(=O)(=O)c3ccc(Cl)cc3)c3c(F)ccc(F)c3OC[C@@H]12)CCN1CC[C@H](O)C1
Ratio IC50 [1]: 12

IC50 (Cytochrome P450 2C9): > 20000 nM
hepatocyte CLint [5]: 65 µL/min/1e6 cells
AUC ([6]; 6 h, BLD = below limit of detection): Bld
hepatocyte CLint [7]: 57.2 µL/min/1e6 cells
IC50 [3]: 1.7 nM
solubility kinetic [2]: 50 µM (≈ 28.2 µg/mL)
IC50 (Cytochrome P450 3A4 [10]): 9000 nM
hepatocyte CLint [11]: 56.5 µL/min/1e6 cells
hepatocyte CLint [12]: 66.7 µL/min/1e6 cells
IC50 (Cytochrome P450 2D6): > 20000 nM
IC50 (Cytochrome P450 3A4 [13]): > 20000 nM
SMILES: CN(C)CCS(=O)(=O)CC[C@@H]1OCC[C@@]2(S(=O)(=O)c3ccc(Cl)cc3)c3c(F)ccc(F)c3OC[C@@H]12
Activity (Mus musculus [4]): -21%
Activity (Mus musculus [8]): -45%
Ratio IC50 [1]: 20
